Experimental data published in PubChem BioAssay AID179 (DTP/NCI, 2004).
pEC50, pIC50: −log10 of the molar value. Calls of active or inactive are those of the source.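 The calls were made as follows: active = compounds giving half or more protection of infected cells from virus-caused growth loss, again on retest; inactive = the rest.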

System: CEM cells HIV-1 protection, formazan growth assay
Test: NCI AIDS Antiviral Assay
Conditions: for pIC50: measured here: growth of uninfected CEM cells
How it was run: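 Five concentrations of each compound were applied to infected and uninfected human CEM cells. Protection from HIV-1 was judged from growth measured with a soluble formazan assay.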

In the case of `COc1ccccc1C1SC(c2ccccc2)(c2ccccc2)OC1=O` (configuration not stated), the pEC50 was under 5.40 and the pIC50 was under 5.40.

For `Cc1cccc(C(=O)c2cccc3ccccc23)c1C(=O)O`, the outcome was “inactive”.

Work on `COc1ccc2c(c1)OC(c1ccccc1O)CC2=O` (configuration not stated) yielded a pEC50 of under 3.73 and a pIC50 of 4.52.

`O=S1(=O)OC(c2ccc(O)cc2)(c2ccc(O)cc2)c2ccccc21` was tested, and the outcome was “inactive”.

`Clc1cnc2cccc3c2c1C=CN3` showed a pEC50 of under 3.89 and a pIC50 of 4.28.

`CC1(C)Oc2ccc3ccc(=S)oc3c2[C@@H](OC(=O)C23CCC(C)(C(=O)O2)C3(C)C)[C@H]1OC(=O)C12CCC(C)(C(=O)O1)C2(C)C` (some centres not stated) was tested, and the pEC50 was 6.28 and the pIC50 was 5.25.

`CC(C)=CCOC(=O)C(C)=[N+]=[N-]` showed a pEC50 of under 3.70 and a pIC50 of 3.77.

In the case of `CCOC(CN(C)C(=O)OCC(Cl)(Cl)Cl)OCC`, the pEC50 was under 4.65 and the pIC50 was under 4.65.

`NC(Cc1ccccc1)C(=O)OCN1C(=O)C2C3C=CC(C2C1=O)C1C2C(=O)N(COC(=O)C(N)Cc4ccccc4)C(=O)C2C31` (configuration not stated) gave a pEC50 of under 3.70 and a pIC50 of 4.50.

`CCOC(=O)c1c(-c2ccc(Cl)cc2)c(C#N)c(=S)n(C2OC(CO)C(O)C(O)C2O)c1-c1ccccc1` (configuration not stated) gave a pEC50 of under 3.70 and a pIC50 of 4.46.

With `CC(=O)NC1C(CO)O[C@@H]2OC(C)(C)O[C@H]12` (some centres not stated) the pEC50 was under 3.70 and the pIC50 was under 3.70.

`CC(C)=CC(=O)Cc1nc2cc(C)c(C)cc2[nH]c1=O` was tested, and the outcome was “inactive”.

For `Cc1ccc(N2C(=O)N(c3ccc(C)cc3)C3(Sc4ccccc4N3C)C2=O)cc1` (configuration not stated), the pEC50 was under 4.90 and the pIC50 was under 4.90.

Work on `CC(C)Cc1cccc(C(C)C)c1NC(=O)CCC(=O)N/N=C1\C(=N/NC(=O)CCC(=O)Nc2c(C(C)C)cccc2C(C)C)C(c2ccc3c(c2)OCO3)Oc2ccccc21` (configuration not stated) yielded a pEC50 of under 3.95 and a pIC50 of 4.09.

`O=C1CSCC(=O)O1` was tested, and the pEC50 was under 2.72 and the pIC50 was under 2.72.

Compound `Cn1cc(B(O)O)c(=O)[nH]c1=O` has a pEC50 of under 3.70 and a pIC50 of under 3.70.

Compound `CCNC(=O)c1ccc(C)c(N=NN(C)C)c1` has a pEC50 of under 3.54 and a pIC50 of under 3.54.

`CN(C)[C@@H]1C(=O)C(C(N)=O)=C(O)[C@@]2(O)C(=O)C3=C(O)c4c(O)ccc(Cl)c4[C@@](C)(O)[C@H]3C[C@@H]12` gave a pEC50 of under 4.85 and a pIC50 of under 4.85.

With `N#Cc1c(Cl)/c(=C/O)c(=O)n2c1nc1ccccc12` the pEC50 was under 3.70 and the pIC50 was 3.96.

`COc1cc2cc(C(=O)N3CC(CCl)c4ccc([N+](C)(C)Cc5ccc([N+](=O)[O-])cc5)cc43)[nH]c2c(OC)c1OC` (configuration not stated) showed a pEC50 of under 3.70 and a pIC50 of 5.11.

`COc1cc2[nH]ncc(=S)c2cc1OC` showed a pEC50 of 4.21 and a pIC50 of 3.66.

`CSC1=Nc2ccccc2SC(c2ccccc2)C1c1ccccc1` (configuration not stated) gave a pEC50 of under 4.31 and a pIC50 of 4.45.

`C=CCO[C@H]1CC[C@@]2(C)C(CC[C@]3(C)C2CC=C2[C@@H]4[C@@H](C)C(C)CC[C@]4(C(=O)O)CCC23C)C1(C)C` (some centres not stated) was tested, and the outcome was “inactive”.

`O=C(O)C(SC1=NNC2(C(=O)N1)c1ccccc1-c1ccccc12)SC1=NNC2(C(=O)N1)c1ccccc1-c1ccccc12` was tested, and the outcome was “inactive”.

`COc1cc(O)c2c(=O)c(OC)c(-c3ccc(OC)c(OC)c3)oc2c1` was tested, and the outcome was “inactive”.

Compound `Cn1c(COC(=O)Nc2ccccc2)c(COC(=O)Nc2ccccc2)c2ccc3ccccc3c21` has a pEC50 of under 3.70 and a pIC50 of 6.47.

In the case of `C/C=C/C(=O)[C@@H](O)C(C)(C)C`, the outcome was “inactive”.

`Cc1nnc2nc(-c3ccccc3)nc(-c3ccccc3)n12` was tested, and the pEC50 was under 3.70 and the pIC50 was under 3.70.

`COCCOCCOCCOCCOCCOCCOCCOCCOCCOCCOCCOCCOCCOCCOCCOCCOCC(=O)N(CCn1ccc(NC(c2ccccc2)(c2ccccc2)c2ccccc2)nc1=O)CCn1cnc2nc(NC(=O)c3ccccc3)[nH]c(=O)c21` gave a pEC50 of under 3.77 and a pIC50 of 4.07.

For `CCC[CH2][Sn]1([CH2]CCC)[O]C(=O)c2cccnc2[S]1`, the pEC50 was under 4.47 and the pIC50 was 6.20.

With `CC1(c2ccccc2)N=C(C(N)=O)c2[nH]cnc2N1` (configuration not stated) the pEC50 was under 3.70 and the pIC50 was under 3.70.

For `Cc1c(N=Nc2ccc(Cl)cc2)c(C)n(C2OC(CO)C(O)C(O)C2O)c(=S)c1C#N` (configuration not stated), the pEC50 was under 3.70 and the pIC50 was 4.46.

Work on `CC1OC(n2cc(F)c(=O)[nH]c2=O)C=CC1=O` (configuration not stated) yielded a pEC50 of under 2.98 and a pIC50 of 4.85.

With `C=CCOC(C)n1c(C)c(Br)c(=O)[nH]c1=O` (configuration not stated) the outcome was “inactive” and the pIC50 was under 3.70.

In the case of `N#C/C(=C\c1ccc(F)cc1)c1nc(-c2cc3ccccc3oc2=O)cs1`, the outcome was “inactive”.

With `CCOC(=O)/C(C#N)=N\Nc1ccc(-n2c(C)nc3ccccc3c2=O)cc1` the pEC50 was under 3.70 and the pIC50 was 4.05.

Work on `N=C1C(=O)NC(=O)C1c1ccccc1` (configuration not stated) yielded a pEC50 of under 3.70 and a pIC50 of 3.82.

In the case of `CC1(C)CC(=O)C(=CN2C(=O)CNC2=S)C(=O)C1`, the pEC50 was under 3.70 and the pIC50 was under 3.70.

In the case of `Cc1cc(NS(=O)(=O)c2ccc(NC(=O)c3cccc4c(Nc5ccc(S(=O)(=O)Nc6cc(C)on6)cc5)c5ccccc5nc34)cc2)no1`, the pEC50 was under 4.44 and the pIC50 was under 4.44.

`CCN(CC)CCN1C(=O)CN=C(c2ccccn2)c2cc(Cl)ccc21` was tested, and the pEC50 was under 3.35 and the pIC50 was 3.62.

`Cc1ccc(OCC2OC(n3cnc4c(N(C)C)nc(Br)nc43)CC2Oc2ccc(C)cc2)cc1` (configuration not stated) showed a pEC50 of under 3.70 and a pIC50 of 4.50.

With `COC(=O)c1c(C)cccc1C1CN=NC12Cc1ccc(C)c(C)c1C2=O` (configuration not stated) the pEC50 was under 3.70 and the pIC50 was 4.82.

For `CC(OC(C)(C)C)C(NC(=O)C(Cc1ccccc1)NC(=O)C(NC(=O)C(CCCCNC(=O)OC(C)(C)C)NC(=O)C(Cc1c[nH]c2ccccc12)C(=O)NC(Cc1ccccc1)NC(=O)C(Cc1ccccc1)NC(=O)C(CC(N)=O)NC(=O)C(N)CCCCNC(=O)OC(C)(C)C)C(C)OC(C)(C)C)C(=O)NC(COC(C)(C)C)C(=O)NC(CSC(C)(C)C)C(=O)OC(C)(C)C` (configuration not stated), the pEC50 was 4.06 and the pIC50 was under 3.70.

`CCCC(=O)OCC1=CCC2c3c(c4ccccc4n3C)CC1N2Cc1ccccc1` (configuration not stated) gave a pEC50 of under 4.67 and a pIC50 of 5.42.

`COc1ccc(C2SC(=S)N(Cc3ccc(Cl)cc3)N2Cc2ccc(Cl)cc2)cc1` (configuration not stated) gave a pEC50 of under 3.70 and a pIC50 of 4.46.

For `CCCCCCCCC/C=C(/CC(=O)O)C(=O)O`, the pEC50 was under 3.15 and the pIC50 was under 3.15.

For `CCN1CCCCC(=N\O)/C(=N/O)CCCC1`, the pEC50 was under 3.13 and the pIC50 was under 3.13.

In the case of `C=CCC1(C)CCCN(Cc2ccccc2)C1=O` (configuration not stated), the pEC50 was under 3.70 and the pIC50 was 3.98.

`CC1=C(C(=O)OC23CC4CC(CC(C4)C2)C3)C(c2ccccc2OC(F)F)C(C(=O)OC23CC4CC(CC(C4)C2)C3)=C(C)N1` (configuration not stated) showed a pEC50 of under 4.00 and a pIC50 of under 4.00.

`c1ccc2c(c1)oc1cc3c(cc12)n1nnnc1c1cccn31` was tested, and the pEC50 was under 3.70 and the pIC50 was under 3.70.

`O=C1NC(S(=O)(=O)O)=NNC12c1ccccc1-c1ccccc12` was tested, and the pEC50 was under 3.70 and the pIC50 was 3.97.

In the case of `C=C(C)C#CC1(O)C=C(OC)C(OC)=CC1=O` (configuration not stated), the pEC50 was under 3.70 and the pIC50 was 4.68.

In the case of `C=CC(C)NC(=S)NNC(=S)NC` (configuration not stated), the pEC50 was under 3.70 and the pIC50 was 4.05.

`CN=CN(C)c1c2ccccc2nc2ccccc12` gave a pEC50 of under 3.70 and a pIC50 of under 3.70.

In the case of `C#CCN(Cc1ccc2nc(-c3ccccc3)c(Cl)nc2c1)c1ccc(Cl)c(Cl)c1`, the pEC50 was under 3.70 and the pIC50 was under 3.70.

In the case of `COc1ccccc1C1c2cc3c(cc2OC2(OC)COC(=O)C12)OCO3` (configuration not stated), the pEC50 was under 3.70 and the pIC50 was 4.99.

For `Cc1cc(C)c(/C=C(\C(=C/c2c(C)cc(C)cc2C)[N+](=O)[O-])[N+](=O)[O-])c(C)c1`, the pEC50 was under 4.00 and the pIC50 was under 4.00.

`CCOC(=O)C1CCCCc2sc(N)c(C#N)c21` (configuration not stated) was tested, and the pEC50 was under 3.70 and the pIC50 was 3.72.

`N/C(=N/O)C(F)(F)C(F)(F)C(F)(F)/C(N)=N\O` was tested, and the pEC50 was under 3.70 and the pIC50 was under 3.70.

With `CC(=O)Nc1ccc(C(=O)N[C@@H]2C(=O)N3[C@@H]2SC(C)(C)[C@@H]3C(=O)O)cn1` the pEC50 was 4.25 and the pIC50 was 4.12.

`CN(C1=NCCO1)c1cccc2ccccc12` gave a pEC50 of under 3.70 and a pIC50 of 3.89.

`COc1ccc(/C=C2\N=C(C)OC2=O)cc1` was tested, and the pEC50 was under 3.36 and the pIC50 was under 3.36.

With `[N-]=[N+]=NI1OC(=O)c2ccccc21` the pEC50 was under 3.70 and the pIC50 was 4.26.

For `O=c1scc(-c2ccc(C(F)(F)F)cc2)s1`, the pEC50 was under 4.07 and the pIC50 was under 4.07.

`O=C(O)c1ccccc1C(=O)Nn1cnnc1` gave a pEC50 of under 3.70 and a pIC50 of under 3.70.

With `CCOC(=O)C(CCCCn1cnc2ncnc(Cl)c21)(NC(C)=O)C(=O)OCC` the outcome was “inactive”.

`COC(=O)CCCc1ccc2c(c1)CCC2` was tested, and the pEC50 was under 3.70 and the pIC50 was under 3.70.

`CC1(C)C2CCC1C(=O)[C@@]1(C=CC(=O)CC1)C2` (some centres not stated) was tested, and the pEC50 was under 3.70 and the pIC50 was under 3.70.

For `CC(C)(C)C(=O)OC1CCOP(=O)(OCC2OC(n3cc(F)c(=O)[nH]c3=O)CC2O)O1` (configuration not stated), the pEC50 was under 3.70 and the pIC50 was 5.57.

`Nc1ccc(C(=O)N/C(=C\C=C\c2ccco2)c2nc3[nH]c(=S)[nH]c(=O)c3[nH]2)cc1` was tested, and the outcome was “inactive”.

With `O=C1/C(=C\c2ccccc2)C2/C(=C\c3ccccc3)C(=O)/C(=C\c3ccccc3)C2/C1=C\c1ccccc1` (configuration not stated) the outcome was “inactive”.

`BrC1(c2ccccc2)C[n+]2c(-c3ccccc3)cc(-c3ccccc3)cc2-c2ccccc21` (configuration not stated) was tested, and the pEC50 was under 3.70 and the pIC50 was 6.13.

For `CCCN=C1NC(C)=CSC(Nc2ccccc2)=C1C#N`, the pEC50 was under 3.70 and the pIC50 was under 3.70.

With `CC1(C)OC(=S)N(c2ccccc2)C12C=Cc1cc3ccccc3cc1O2` (configuration not stated) the pEC50 was under 3.70 and the pIC50 was 4.10.

`C=C1C(OC(=O)C(O)C(c2ccccc2)N(C)C)CC(OC(C)=O)[C@]2(C)C1C[C@@H]1CC(=O)C(C)=C([C@@H](OC(C)=O)C2OC(C)=O)C1(C)C` (some centres not stated) was tested, and the pEC50 was under 4.03 and the pIC50 was under 4.03.

In the case of `Cc1cc(N=Nc2ccc(NC(=O)c3ccc(N)cc3)cc2C)ccc1N=Nc1ccc2c(O)c(N=Nc3ccc(S(=O)(=O)O)cc3)c(S(=O)(=O)O)cc2c1`, the pEC50 was 4.82 and the pIC50 was 3.98.

In the case of `COC1(OC)CC2CCCCC2=C(C)N1S(=O)(=O)c1ccccc1` (configuration not stated), the outcome was “inactive”.

With `O=[N+]([O-])C(/C=C(\Cl)[N+](=O)[O-])=C(N1CCCCC1)N1CCCCC1` the pEC50 was under 3.70 and the pIC50 was 4.12.

`O=C1/C(=C/c2ccc(OCc3ccccc3)cc2)CCC/C1=C\c1ccc(OCc2ccccc2)cc1` gave a pEC50 of under 5.53 and a pIC50 of under 5.53.

Work on `O=c1c(Br)cc2nc3ccccc3sc-2c1Br` yielded a pEC50 of under 5.00 and a pIC50 of under 5.00.

For `Cc1cc(NCCO)nc2c1ccc1ccccc12`, the pEC50 was under 3.85 and the pIC50 was 4.65.

Work on `Cc1ccnc(NC(=S)Nc2ccccc2Cl)c1` yielded a pEC50 of under 3.70 and a pIC50 of under 3.70.
